# Assays:
# Assay type in all cases: toxicity, cell-based
# [1] = tested on: HEK-293T; test: Incucyte cell viability with HEK293T; conditions: human, 10 µM, compound concentration 10 uM
# [2] = tested on: Fibroblast; test: Incucyte cell viability with human fibroblast; conditions: 10 µM, compound concentration 10 uM
# [3] = tested on: U2OS; test: Incucyte cell viability with U2OS; conditions: human, 10 µM, compound concentration 10 uM
# [4] = 6 h, replicate number 1, timepoint 6 hours
# [5] = 12 h, replicate number 1, timepoint 12 hours
# [6] = 18 h, replicate number 1, timepoint 18 hours
# [7] = 24 h, replicate number 1, timepoint 24 hours
# [8] = 12 h, replicate number 2, timepoint 12 hours
# [9] = 0 h, replicate number 1, timepoint 0 hours
# [10] = 24 h, replicate number 2, timepoint 24 hours
# [11] = 0 h, replicate number 2, timepoint 0 hours
# [12] = 6 h, replicate number 2, timepoint 6 hours
# [13] = 18 h, replicate number 2, timepoint 18 hours
# Also: unitless GR value; below 1 slowed growth and below 0 cell loss.
Structure (SMILES),"Growth Rate [1, 4]","Growth Rate [1, 5]","Growth Rate [1, 7]","Growth Rate [2, 4]","Growth Rate [2, 5]","Growth Rate [2, 8]","Growth Rate [2, 6]","Growth Rate [2, 7]","Growth Rate [3, 9]","Growth Rate [3, 4]","Growth Rate [3, 5]","Growth Rate [3, 8]","Growth Rate [3, 6]","Growth Rate [3, 7]","Growth Rate [3, 10]","Growth Rate [1, 8]","Growth Rate [2, 9]","Growth Rate [2, 11]","Growth Rate [2, 12]","Growth Rate [3, 13]",further results
COc1cc2nc(N3CCN(C(=O)c4ccco4)CC3)nc(N)c2cc1OC.Cl [PRAZOSIN HYDROCHLORIDE],0.79,0.66,0.92,-0.46,0.21,0.92,0.49,0.44,-0.45,0.78,0.57,0.91,0.56,0.77,0.92,,,,,,"Growth Rate [1, 6]: 0.88"
COCCCN1CCC(NC(=O)c2cc(Cl)c(N)c3c2OCC3)CC1 [PRUCALOPRIDE],,,,0.71,0.6,,0.86,,0.24,,,0.99,0,0.1,,0.99,0.48,0.89,0.75,0.98,"Growth Rate [3, 12]: 0.76"
CC(C)(C)c1ccc(CSc2cnn(C(C)(C)C)c(=O)c2Cl)cc1 [PYRIDABEN],-0.14,0.01,0.1,-0.33,-0.26,0.81,-0.13,-0.12,,,,,0.62,0.86,0.96,-0.01,,-0.26,0.56,0.92,"Growth Rate [1, 9]: 0.63; Growth Rate [1, 11]: 0.94; Growth Rate [1, 12]: -0.1; Growth Rate [1, 6]: 0.13; Growth Rate [1, 13]: 0.2; Growth Rate [1, 10]: 0.22; Growth Rate [2, 13]: 0.71; Growth Rate [2, 10]: 0.08; Growth Rate [3, 11]: -1"
COc1ccc(CN(CCN(C)C)c2ccccn2)cc1 [PYRILAMINE],,0.94,,0.36,,,,,0.52,,,,,1,0.96,0.74,,0.99,0.26,0.91,"Growth Rate [1, 12]: 0.74"
CCCN1CCC[C@@H]2Cc3n[nH]cc3C[C@H]21.Cl [QUINPIROLE HYDROCHLORIDE],0.41,,,0.59,0.29,,0.54,,,-0.04,,0.66,0.9,0.88,0.96,,-0.18,0.29,,0.96,"Growth Rate [1, 11]: 0.26; Growth Rate [3, 12]: 0.9"
CC(C)(C)c1cc(NC(=O)Nc2ccc(-c3cn4c(n3)sc3cc(OCCN5CCOCC5)ccc34)cc2)no1 [QUIZARTINIB],-0.18,,,,,1,,,,0.41,,0.51,,,0.65,-0.06,-0.84,0.43,,0.52,"Growth Rate [1, 9]: 0.2; Growth Rate [1, 13]: 0.17; Growth Rate [1, 10]: 0.22; Growth Rate [2, 13]: 0.89; Growth Rate [2, 10]: 0.78"
O=C(O)CCn1c2c(c3ccccc31)C[C@H](NS(=O)(=O)c1ccc(F)cc1)CC2 [RAMATROBAN],,0.91,,,,,,,,,0.75,0.9,0.98,0.97,,0.72,-0.24,0.9,0.99,0.9,"Growth Rate [1, 12]: 0.71; Growth Rate [1, 13]: 0.76; Growth Rate [3, 11]: -1"
CCC(=O)NCC[C@@H]1CCc2ccc3c(c21)CCO3 [RAMELTEON],0.99,,0.86,0.76,0.96,0.73,0.96,0.77,-0.01,0.45,0.54,,0.88,0.82,,,0.51,0.17,0.51,,"Growth Rate [1, 9]: 0.12; Growth Rate [1, 11]: -0.36; Growth Rate [2, 13]: 0.83; Growth Rate [2, 10]: 0.89"

# Source: ChEMBL document CHEMBL5058564, “EUbOPEN Chemogenomics Library 2 (Incucyte)” (2022)
